In patent publication US12357598B2, “Treatment of neurodevelopmental disorders” (THE REGENTS OF THE UNIVERSITY OF CALIFORNIA, priority 2018, dated 2025):

Molecular target: T1, sEH (Homo sapiens, UniProt P34913)
T1 sequence (P34913 1-555): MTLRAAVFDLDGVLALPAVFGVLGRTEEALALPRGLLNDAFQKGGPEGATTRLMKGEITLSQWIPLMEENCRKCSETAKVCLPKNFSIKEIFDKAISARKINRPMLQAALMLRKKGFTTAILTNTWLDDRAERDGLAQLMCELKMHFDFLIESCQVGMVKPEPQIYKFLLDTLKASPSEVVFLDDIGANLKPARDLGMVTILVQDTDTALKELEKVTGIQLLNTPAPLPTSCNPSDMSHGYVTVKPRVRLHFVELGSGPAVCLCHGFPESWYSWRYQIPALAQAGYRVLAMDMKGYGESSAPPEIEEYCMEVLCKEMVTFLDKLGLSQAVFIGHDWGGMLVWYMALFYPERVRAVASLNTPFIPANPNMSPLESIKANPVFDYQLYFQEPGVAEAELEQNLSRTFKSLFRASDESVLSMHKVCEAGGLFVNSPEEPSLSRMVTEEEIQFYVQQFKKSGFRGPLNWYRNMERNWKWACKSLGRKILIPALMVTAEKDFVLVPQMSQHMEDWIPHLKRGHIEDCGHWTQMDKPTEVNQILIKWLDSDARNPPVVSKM
Experiment: Testing of ureas and lipid alkoxides as sEH inhibitors
Type: biochemical
From the text: (Both the 1- and the 2-adamantyl ureas have been tested and have about the same high activity as an inhibitor of sEH. Thus, isomers of adamantyl dodecyl urea are preferred inhibitors. It is further expected that N, N′-dodecyl-cyclohexyl urea (DCU), and other inhibitors of sEH, and particularly dodecanoic acid ester derivatives of urea, are suitable for use in the methods. Preferred inhibitors include without limitation:
U.S. Pat. No. 5,955,496 (the '496 patent) also sets forth a number of sEH inhibitors which can be used in the methods. One category of these inhibitors comprises inhibitors that mimic the substrate for the enzyme. The lipid alkoxides (e.g., the 9-methoxide of stearic acid) are an exemplar of this group of inhibitors.

activity as an inhibitor of sEH: particularly high activity
SMILES: CCCCCCCCCCCCNC(=O)NC12CC3CC(CC(C3)C1)C2 [ADU, N-Adamantyl-N′-dodecyl urea]
